Laboratory results reported in ChEMBL document CHEMBL3885861, “Open TG-GATES”.

Species on record: Rattus norvegicus
Assay: Open TG-GATES - Regimen: Daily Repeat
Format: toxicity, organism-based, Sprague-Dawley
Design: regimen Daily Repeat, gender Male, age 6 weeks
Settings: in vivo, po, 30 mg/kg, route gavage, dose level Middle; for APTT / Bas / Eos / Fbg / Hb / Ht / Lym / MCH / MCHC / MCV / Mono / Neu / PT / Plat / RBC / Ret / WBC: tissue Blood; for KIDNEY_L / KIDNEY_R / KIDNEY_TOTAL: tissue Kidney; for LIVER: tissue Liver; for A/G / ALP / ALT / AST / BUN / CRE / Ca / Cl / DBIL / GLC / IP / K / LDH / Na / PL / RALB / TBIL / TC / TG / TP / gamma-GTP: tissue Plasma

## Nc1ccc(Cc2ccc(N)cc2)cc1
72 h, time 3 day
  TERMINAL_BW: 240.8 g
  APTT: 13.8 s
  Bas: 0%
  Eos: 1%
  Fbg: 295.8 mg/dL
  Hb: 13.3 g/dL
  Ht: 39.3%
  Lym: 72.6%
  MCH: 20.5 pg
  MCHC: 33.8%
  MCV: 60.6 fL
  Mono: 2.6%
  Neu: 23%
  PT: 11.4 s
  Plat: 133.5 x10_4/uL
  RBC: 649.4 x10_4/ul
  Ret: 5.6%
  WBC: 112 x10_2/uL
  KIDNEY_L: 1 g
  KIDNEY_R: 1 g
  KIDNEY_TOTAL: 2 g
  LIVER: 12.3 g
  A/G: 0.8
  ALP: 1785.8 IU/L
  ALT: 59.4 IU/L
  AST: 104 IU/L
  BUN: 14.6 mg/dL
  CRE: 0.2 mg/dL
  Ca: 11.1 mg/dL
  Cl: 105.6 meq/L
  DBIL: 0.022 mg/dL
  GLC: 159.2 mg/dL
  IP: 7.5 mg/dL
  K: 4.2 meq/L
  LDH: 89.2 IU/L
  Na: 143.4 meq/L
  PL: 160 mg/dL
  RALB: 2.6 g/dL
  TBIL: 0.05 mg/dL
  TC: 95.8 mg/dL
  TG: 83.4 mg/dL
  TP: 5.8 g/dL
  gamma-GTP: 2 IU/L
[…], time 7 day
  TERMINAL_BW: 277.9 g
  APTT: 14.2 s
  Bas: 0.2%
  Eos: 0.8%
  Fbg: 286 mg/dL
  Hb: 13.7 g/dL
  Ht: 39.1%
  Lym: 71.6%
  MCH: 20.6 pg
  MCHC: 34.9%
  MCV: 59.1 fL
  Mono: 2.8%
  Neu: 23.8%
  PT: 11.4 s
  Plat: 147.7 x10_4/uL
  RBC: 663 x10_4/ul
  Ret: 5.2%
  WBC: 101.6 x10_2/uL
  KIDNEY_L: 1.1 g
  KIDNEY_R: 1.1 g
  KIDNEY_TOTAL: 2.2 g
  LIVER: 13.2 g
  A/G: 0.8
  ALP: 1631.6 IU/L
  ALT: 37 IU/L
  AST: 68 IU/L
  BUN: 17.4 mg/dL
  CRE: 0.2 mg/dL
  Ca: 11.2 mg/dL
  Cl: 105.2 meq/L
  DBIL: 0.026 mg/dL
  GLC: 173.6 mg/dL
  IP: 7.4 mg/dL
  K: 4.1 meq/L
  LDH: 85.2 IU/L
  Na: 143 meq/L
  PL: 145 mg/dL
  RALB: 2.7 g/dL
  TBIL: 0.064 mg/dL
  TC: 81 mg/dL
  TG: 125.2 mg/dL
  TP: 6 g/dL
  gamma-GTP: 1.2 IU/L
[…], time 14 day
  TERMINAL_BW: 333.9 g
  APTT: 15.3 s
  Bas: 0.2%
  Eos: 0.6%
  Fbg: 273.6 mg/dL
  Hb: 13.7 g/dL
  Ht: 39.6%
  Lym: 75%
  MCH: 20.1 pg
  MCHC: 34.7%
  MCV: 57.9 fL
  Mono: 2.2%
  Neu: 21.2%
  PT: 11.8 s
  Plat: 141.9 x10_4/uL
  RBC: 684.8 x10_4/ul
  Ret: 4.6%
  WBC: 128.9 x10_2/uL
  KIDNEY_L: 1.2 g
  KIDNEY_R: 1.2 g
  KIDNEY_TOTAL: 2.4 g
  LIVER: 15.2 g
  A/G: 0.8
  ALP: 1617.2 IU/L
  ALT: 38.4 IU/L
  AST: 66.4 IU/L
  BUN: 15.6 mg/dL
  CRE: 0.2 mg/dL
  Ca: 10.9 mg/dL
  Cl: 105 meq/L
  DBIL: 0.016 mg/dL
  GLC: 190.6 mg/dL
  IP: 6.8 mg/dL
  K: 3.7 meq/L
  LDH: 71.8 IU/L
  Na: 143.2 meq/L
  PL: 141.2 mg/dL
  RALB: 2.6 g/dL
  TBIL: 0.054 mg/dL
  TC: 72.8 mg/dL
  TG: 96.8 mg/dL
  TP: 6.1 g/dL
  gamma-GTP: 1 IU/L
[…], time 28 day
  TERMINAL_BW: 429.1 g
  APTT: 17.1 s
  Bas: 0.8%
  Eos: 1%
  Fbg: 273.4 mg/dL
  Hb: 14.9 g/dL
  Ht: 41.7%
  Lym: 76.8%
  MCH: 19.8 pg
  MCHC: 35.7%
  MCV: 55.5 fL
  Mono: 2.2%
  Neu: 19%
  PT: 11.9 s
  Plat: 109.8 x10_4/uL
  RBC: 752 x10_4/ul
  Ret: 2.7%
  WBC: 131.8 x10_2/uL
  KIDNEY_L: 1.4 g
  KIDNEY_R: 1.4 g
  KIDNEY_TOTAL: 2.9 g
  LIVER: 19.2 g
  A/G: 0.7
  ALP: 1167.6 IU/L
  ALT: 38.6 IU/L
  AST: 66.2 IU/L
  BUN: 15.4 mg/dL
  CRE: 0.2 mg/dL
  Ca: 11.1 mg/dL
  Cl: 104.8 meq/L
  DBIL: 0.024 mg/dL
  GLC: 178.6 mg/dL
  IP: 6.1 mg/dL
  K: 4 meq/L
  LDH: 74.6 IU/L
  Na: 145.2 meq/L
  PL: 141.6 mg/dL
  RALB: 2.6 g/dL
  TBIL: 0.062 mg/dL
  TC: 73.6 mg/dL
  TG: 110.4 mg/dL
  TP: 6.4 g/dL
  gamma-GTP: 1 IU/L
